≈ marks a conversion by molar mass, not a printed value.
Key:
K562 = assay: Cytotoxicity against human K562 cells assessed as reduction in cell viability by MTT assay; type: functional, cell-based
Bel-7402 = assay: Cytotoxicity against human Bel-7402 cells assessed as reduction in cell viability by SRB assay; type: functional, cell-based
HCT-116 = assay: Cytotoxicity against human HCT-116 cells assessed as reduction in cell viability by SRB assay; type: functional, cell-based
A549 = assay: Cytotoxicity against human A549 cells assessed as reduction in cell viability by SRB assay; type: functional, cell-based
HeLa = assay: Cytotoxicity against human HeLa cells assessed as reduction in cell viability by SRB assay; type: functional, cell-based
L02 = assay: Cytotoxicity against human L02 cells assessed as reduction in cell viability by SRB assay; type: cell-based
GES1 = assay: Cytotoxicity against human GES1 cells assessed as reduction in cell viability by SRB assay; type: functional, cell-based
U-87 MG = assay: Cytotoxicity against human U87 cells assessed as reduction in cell viability by SRB assay; type: functional, cell-based, U-87MG ATCC
ASPC1 = assay: Cytotoxicity against human ASPC1 cells assessed as reduction in cell viability by SRB assay; type: functional, cell-based
SH-SY5Y = assay: Cytotoxicity against human SH-SY5Y cells assessed as reduction in cell viability by SRB assay; type: functional, cell-based
PC-3 = assay: Cytotoxicity against human PC-3 cells assessed as reduction in cell viability by SRB assay; type: functional, cell-based
MGC-803 = assay: Cytotoxicity against human MGC-803 cells assessed as reduction in cell viability by SRB assay; type: functional, cell-based
[1] = Cytotoxicity against human HO-8910 cells assessed as reduction in cell viability by SRB assay; type: functional, cell-based
MCF7 = assay: Cytotoxicity against human MCF7 cells assessed as reduction in cell viability by SRB assay; type: functional, cell-based
MDA-MB-231 = assay: Cytotoxicity against human MDA-MB-231 cells assessed as reduction in cell viability by SRB assay; type: functional, cell-based
NCI-H446 = assay: Cytotoxicity against human NCI-H446 cells assessed as reduction in cell viability by SRB assay; type: functional, cell-based
Bacillus cereus = assay: Antimicrobial activity against Bacillus cereus assessed as reduction in bacterial growth by agar dilution method; type: functional
Acinetobacter baumannii = assay: Antimicrobial activity against Acinetobacter baumannii assessed as reduction in bacterial growth by agar dilution method; type: functional
Proteus mirabilis = assay: Antimicrobial activity against Proteus mirabilis assessed as reduction in bacterial growth by agar dilution method; type: functional
Mycolicibacterium phlei = assay: Antimicrobial activity against Mycobacterium phlei assessed as reduction in bacterial growth by agar dilution method; type: functional
Edwardsiella tarda = assay: Antimicrobial activity against Edwardsiella tarda assessed as reduction in bacterial growth by agar dilution method; type: functional
Escherichia coli = assay: Antimicrobial activity against Escherichia coli assessed as reduction in bacterial growth by agar dilution method; type: functional
Bacillus subtilis = assay: Antimicrobial activity against Bacillus subtilis assessed as reduction in bacterial growth by agar dilution method; type: functional
Staphylococcus aureus = assay: Antimicrobial activity against methicillin-resistant Staphylococcus aureus assessed as reduction in bacterial growth by agar dilution method; type: functional
Vibrio parahaemolyticus = assay: Antimicrobial activity against Vibrio parahaemolyticus assessed as reduction in bacterial growth by agar dilution method; type: functional
Staphylococcus = assay: Antimicrobial activity against methicillin-resistant coagulase-negative Staphylococci assessed as reduction in bacterial growth by agar dilution method; type: functional

CCCCCCC1C([C@@H](O)C(=O)[C@H](O)CCC)C=C2C3(OC)OC(=O)[C@]2(C)CC2=C(C(=O)OC2=O)C13 (stereo partly specified)
IC50 (K562): > 30 µM
IC50 (Bel-7402): > 30 µM
IC50 (HCT-116): > 30 µM
IC50 (A549): > 30 µM
IC50 (HeLa): > 30 µM
IC50 (L02): > 30 µM
IC50 (GES1): > 30 µM
IC50 (U-87 MG): > 30 µM
IC50 (ASPC1): > 30 µM
IC50 (SH-SY5Y): > 30 µM
IC50 (PC-3): > 30 µM
IC50 (MGC-803): > 30 µM
IC50 [1]: > 30 µM
IC50 (MCF7): > 30 µM
IC50 (MDA-MB-231): > 30 µM
IC50 (NCI-H446): > 30 µM
MIC (Bacillus cereus): > 50 µM
MIC (Acinetobacter baumannii): > 50 µM
MIC (Proteus mirabilis): 3.13 µM (≈ 1.58 µg/mL)
MIC (Mycolicibacterium phlei): > 50 µM
MIC (Edwardsiella tarda): > 50 µM
MIC (Escherichia coli): > 50 µM
MIC (Bacillus subtilis): > 50 µM
MIC (Staphylococcus aureus): > 50 µM
MIC (Vibrio parahaemolyticus): 6.13 µM (≈ 3.09 µg/mL)
MIC (Staphylococcus): > 50 µM

CCCCCCC1C([C@@H](O)C(=O)[C@H](O)CCC)C=C2C3(O)OC(=O)[C@]2(C)CC2=C(C(=O)OC2=O)C13 (stereo partly specified)
IC50 (K562): > 30 µM
IC50 (Bel-7402): > 30 µM
IC50 (HCT-116): > 30 µM
IC50 (A549): > 30 µM
IC50 (HeLa): > 30 µM
IC50 (L02): > 30 µM
IC50 (GES1): > 30 µM
IC50 (U-87 MG): > 30 µM
IC50 (ASPC1): > 30 µM
IC50 (SH-SY5Y): > 30 µM
IC50 (PC-3): > 30 µM
IC50 (MGC-803): > 30 µM
IC50 [1]: > 30 µM
IC50 (MCF7): > 30 µM
IC50 (MDA-MB-231): > 30 µM
IC50 (NCI-H446): > 30 µM
MIC (Bacillus cereus): > 50 µM
MIC (Acinetobacter baumannii): > 50 µM
MIC (Proteus mirabilis): 12.5 µM (≈ 6.13 µg/mL)
MIC (Mycolicibacterium phlei): > 50 µM
MIC (Edwardsiella tarda): > 50 µM
MIC (Escherichia coli): > 50 µM
MIC (Bacillus subtilis): > 50 µM
MIC (Staphylococcus aureus): > 50 µM
MIC (Vibrio parahaemolyticus): > 50 µM
MIC (Staphylococcus): > 50 µM

CCCC[C@H]1CC2C([C@@H](O)C(=O)[C@H](O)CCC)C=C3C4(OC(=O)[C@]3(C)CC3=C(C(=O)OC3=O)C24)O1 (stereo partly specified)
IC50 (K562): > 30 µM
IC50 (Bel-7402): > 30 µM
IC50 (HCT-116): > 30 µM
IC50 (A549): > 30 µM
IC50 (HeLa): > 30 µM
IC50 (L02): > 30 µM
IC50 (GES1): > 30 µM
IC50 (U-87 MG): > 30 µM
IC50 (ASPC1): > 30 µM
IC50 (SH-SY5Y): > 30 µM
IC50 (PC-3): > 30 µM
IC50 (MGC-803): > 30 µM
IC50 [1]: > 30 µM
IC50 (MCF7): > 30 µM
IC50 (MDA-MB-231): > 30 µM
IC50 (NCI-H446): > 30 µM
MIC (Bacillus cereus): > 50 µM
MIC (Acinetobacter baumannii): > 50 µM
MIC (Proteus mirabilis): > 50 µM
MIC (Mycolicibacterium phlei): > 50 µM
MIC (Edwardsiella tarda): > 50 µM
MIC (Escherichia coli): > 50 µM
MIC (Bacillus subtilis): > 50 µM
MIC (Staphylococcus aureus): > 50 µM
MIC (Vibrio parahaemolyticus): > 50 µM
MIC (Staphylococcus): > 50 µM

CCCCCCC1C2C(=O)C(=CC1[C@@H](O)C(=O)[C@H](O)CCC)[C@](C)(C(=O)OC)CC1=C2C(=O)OC1=O (stereo partly specified)
IC50 (K562): > 30 µM
IC50 (Bel-7402): > 30 µM
IC50 (HCT-116): > 30 µM
IC50 (A549): > 30 µM
IC50 (HeLa): > 30 µM
IC50 (L02): > 30 µM
IC50 (GES1): > 30 µM
IC50 (U-87 MG): > 30 µM
IC50 (ASPC1): > 30 µM
IC50 (SH-SY5Y): > 30 µM
IC50 (PC-3): > 30 µM
IC50 (MGC-803): > 30 µM
IC50 [1]: > 30 µM
IC50 (MCF7): > 30 µM
IC50 (MDA-MB-231): > 30 µM
IC50 (NCI-H446): > 30 µM
MIC (Bacillus cereus): > 50 µM
MIC (Acinetobacter baumannii): > 50 µM
MIC (Proteus mirabilis): > 50 µM
MIC (Mycolicibacterium phlei): > 50 µM
MIC (Edwardsiella tarda): > 50 µM
MIC (Escherichia coli): > 50 µM
MIC (Bacillus subtilis): > 50 µM
MIC (Staphylococcus aureus): > 50 µM
MIC (Vibrio parahaemolyticus): > 50 µM
MIC (Staphylococcus): > 50 µM

CCCCCCC1C([C@@H](O)C(=O)[C@H](C)CCC)C=C2C3(OC)OC(=O)[C@]2(C)CC2=C(C(=O)OC2=O)C13 (stereo partly specified)
IC50 (K562): > 30 µM
IC50 (Bel-7402): > 30 µM
IC50 (HCT-116): > 30 µM
IC50 (A549): > 30 µM
IC50 (HeLa): > 30 µM
IC50 (L02): > 30 µM
IC50 (GES1): > 30 µM
IC50 (U-87 MG): > 30 µM
IC50 (ASPC1): > 30 µM
IC50 (SH-SY5Y): > 30 µM
IC50 (PC-3): > 30 µM
IC50 (MGC-803): > 30 µM
IC50 [1]: > 30 µM
IC50 (MCF7): > 30 µM
IC50 (MDA-MB-231): > 30 µM
IC50 (NCI-H446): > 30 µM
MIC (Bacillus cereus): > 50 µM
MIC (Acinetobacter baumannii): > 50 µM
MIC (Proteus mirabilis): > 50 µM
MIC (Mycolicibacterium phlei): > 50 µM
MIC (Edwardsiella tarda): > 50 µM
MIC (Escherichia coli): > 50 µM
MIC (Bacillus subtilis): > 50 µM
MIC (Staphylococcus aureus): > 50 µM
MIC (Vibrio parahaemolyticus): > 50 µM
MIC (Staphylococcus): > 50 µM

CCCCCCC1C2C(=O)C(=CC1[C@@H](O)C(=O)[C@H](O)CCC)[C@@H](C)CC1=C2C(=O)OC1=O (stereo partly specified)
IC50 (K562): > 30 µM
IC50 (Bel-7402): > 30 µM
IC50 (HCT-116): > 30 µM
IC50 (A549): > 30 µM
IC50 (HeLa): > 30 µM
IC50 (L02): > 30 µM
IC50 (GES1): > 30 µM
IC50 (U-87 MG): > 30 µM
IC50 (ASPC1): > 30 µM
IC50 (SH-SY5Y): > 30 µM
IC50 (PC-3): > 30 µM
IC50 (MGC-803): > 30 µM
IC50 [1]: > 30 µM
IC50 (MCF7): > 30 µM
IC50 (MDA-MB-231): > 30 µM
IC50 (NCI-H446): > 30 µM
MIC (Bacillus cereus): > 50 µM
MIC (Acinetobacter baumannii): > 50 µM
MIC (Proteus mirabilis): > 50 µM
MIC (Mycolicibacterium phlei): > 50 µM
MIC (Edwardsiella tarda): > 50 µM
MIC (Escherichia coli): > 50 µM
MIC (Bacillus subtilis): > 50 µM
MIC (Staphylococcus aureus): > 50 µM
MIC (Vibrio parahaemolyticus): > 50 µM
MIC (Staphylococcus): > 50 µM

O=C(O)c1cn(C2CC2)c2cc(N3CCNCC3)c(F)cc2c1=O [CIPROFLOXACIN]
MIC (Bacillus cereus): 0.78 µM (≈ 0.258 µg/mL)
MIC (Acinetobacter baumannii): 25 µM (≈ 8.28 µg/mL)
MIC (Proteus mirabilis): 0.098 µM (≈ 0.0325 µg/mL)
MIC (Mycolicibacterium phlei): 0.195 µM (≈ 0.0646 µg/mL)
MIC (Edwardsiella tarda): 0.0245 µM (≈ 0.00812 µg/mL)
MIC (Escherichia coli): 25 µM (≈ 8.28 µg/mL)
MIC (Bacillus subtilis): 0.195 µM (≈ 0.0646 µg/mL)
MIC (Staphylococcus aureus): 25 µM (≈ 8.28 µg/mL)
MIC (Vibrio parahaemolyticus): 0.39 µM (≈ 0.129 µg/mL)
MIC (Staphylococcus): 25 µM (≈ 8.28 µg/mL)

Reference: ChEMBL document CHEMBL4840372, “Talarodrides A-F, Nonadrides from the Antarctic Sponge-Derived Fungus Talaromyces sp. HDN1820200” (J Nat Prod, 2021)
